Laboratory results: the OPERA property sets (Mansouri et al. 2018)

Conditions: for log10 BCF / log10 biotransformation half-life (days): fish

CCB(O)O
melting point: 40 °C

ClC(Br)Br
boiling point: 120 °C
log10 Henry constant (atm·m³/mol): -3.11
log10 Koa: 3.59
log10 Koc (L/kg): 1.92
melting point: -20 °C
ready biodegradability: not readily biodegradable

NS(=O)(=O)c1ccc(SCCCO)c(F)c1
melting point: 110 °C

CC(C)C1CCCCC1
boiling point: 155 °C
log10 vapour pressure (mmHg): 0.681
melting point: -89.4 °C

C#C[C@]1(O)CC[C@H]2[C@@H]3CCC4=CC(=O)CC[C@@H]4[C@H]3CC[C@@]21C
melting point: 204 °C

CCC(C)(CC)c1ccccc1
boiling point: 205 °C

CCCCC1CCC(=O)O1 (stereo unspecified)
boiling point: 234 °C

Oc1cc(F)cc(F)c1F
melting point: 29 °C

CCCCc1cccc(O)c1
boiling point: 248 °C

NNS(=O)(=O)c1ccccc1
melting point: 102 °C

CC(=O)Nc1nnc(S(N)(=O)=O)s1
melting point: 260 °C

C#CCC1CCCCC1
boiling point: 158 °C

OCc1ccc(O)cc1
boiling point: 252 °C
melting point: 124 °C

CCCN(C)C
boiling point: 66 °C

Fc1ccccn1
boiling point: 127 °C

Clc1ccc(Cl)c(-c2ccc(Cl)c(Cl)c2Cl)c1
log10 Henry constant (atm·m³/mol): -4.13
log10 Koc (L/kg): 4.62
log10 vapour pressure (mmHg): -4.77
log10 BCF: 5.38
log10 biotransformation half-life (days): 2.31

O=C1OC(=O)c2c(F)c(F)c(F)c(F)c21
melting point: 95 °C

C=CP(=O)(O)O
melting point: 43 °C

CCNc1cccc(C)c1
boiling point: 221 °C

CC(C)N(C(=O)COc1nnc(C(F)(F)F)s1)c1ccc(F)cc1
log10 vapour pressure (mmHg): -6.17
melting point: 76 °C

COc1ccc(O)c(C=O)c1
boiling point: 248 °C
melting point: 4 °C

CC(C)Cl
boiling point: 35.7 °C
log10 vapour pressure (mmHg): 2.71
melting point: -117 °C

NC(=O)Nc1cccc(Br)c1
log10 Koc (L/kg): 2.12

O=CC1CCC=CO1 (stereo unspecified)
boiling point: 146 °C

OCCCCCC(F)(F)F
boiling point: 166 °C

CCCCCCCCCCCCCCCCCC(=O)OC
boiling point: 370 °C
log10 vapour pressure (mmHg): -4.87
melting point: 39.1 °C

FC1(F)C(Cl)=C(Cl)C(F)(F)C(F)(F)C1(F)F
boiling point: 113 °C
melting point: -70 °C

Nc1c2ccccc2nc2ccccc12
melting point: 241 °C

CC(Cl)C(Cl)Cl (stereo unspecified)
boiling point: 132 °C
log10 vapour pressure (mmHg): 0.491

CC(COc1ccccc1)NC(C)C(O)c1ccc(O)cc1 (stereo unspecified)
melting point: 103 °C

Cc1cc(C)c(N)c(Cl)c1
ready biodegradability: not readily biodegradable

C=CC(=O)NCO
melting point: 74.5 °C

c1cnc2[nH]ccc2c1
melting point: 106 °C

c1ccc(Cc2ccncc2)cc1
boiling point: 288 °C
melting point: 12.4 °C

CCOc1ccccc1OS(=O)(=O)NC(O)=Nc1nc(OC)cc(OC)n1
melting point: 145 °C

c1ccc2c(c1)CCNC2
boiling point: 232 °C

FC(F)(F)c1ccc(Cl)nc1
boiling point: 153 °C
melting point: 33 °C

c1ccc2cc3c(ccc4c5ccccc5ccc34)cc2c1
log10 biotransformation half-life (days): 0.58

CCCC(C(C)=O)C(=O)OCC (stereo unspecified)
boiling point: 224 °C

C1=CC2C3C=CC(C3)C2C1 (stereo unspecified)
boiling point: 170 °C
log10 vapour pressure (mmHg): 0.361
melting point: 15.5 °C
ready biodegradability: not readily biodegradable
log10 BCF: 2.34

Cc1ccc(NC(=O)c2ccccc2)cc1
melting point: 158 °C

COP(=S)(OC)Oc1ccc(S(C)(=O)=O)c(C)c1
log10 BCF: 0.51
log10 biotransformation half-life (days): -0.03

COP(=S)(OC)Oc1ccc(C#N)cc1
log10 vapour pressure (mmHg): -3.1
melting point: 14.5 °C
ready biodegradability: not readily biodegradable
log10 BCF: 1.56
log10 biotransformation half-life (days): 0.23

C=C(C)C(CC)CC
boiling point: 110 °C
melting point: -113 °C

CCC1CCCO1 (stereo unspecified)
boiling point: 109 °C

C=CC(=O)NCOCCCC
ready biodegradability: readily biodegradable

CCOc1cccc(Cl)c1
boiling point: 207 °C

Clc1cc(Cl)c(Cl)cc1Cl
boiling point: 244 °C
log10 Henry constant (atm·m³/mol): -3
log10 Koa: 5.63
log10 Koc (L/kg): 4.1
log10 vapour pressure (mmHg): -2.27
melting point: 140 °C
ready biodegradability: not readily biodegradable
log10 BCF: 3.44
log10 biotransformation half-life (days): 1.79

Cc1cc(C)c(Br)c(C)c1Br
boiling point: 285 °C
melting point: 65.5 °C

Clc1sc(Cl)c(Cl)c1Cl
boiling point: 233 °C
melting point: 30.5 °C

C=CCOC(Cn1ccnc1)c1ccc(Cl)cc1Cl (stereo unspecified)
boiling point: 347 °C
log10 Koc (L/kg): 3.73
log10 vapour pressure (mmHg): -5.92
melting point: 52.7 °C

c1ccc2sc(SSN3CCOCC3)nc2c1
melting point: 135 °C

CCc1ccc(Br)cc1
boiling point: 204 °C
log10 vapour pressure (mmHg): -0.155
melting point: -43.5 °C

CC1(c2ccccc2)C(=O)NC(=O)NC1=O
melting point: 220 °C

CC(C)CCCC(C)C
boiling point: 135 °C
melting point: -103 °C

Cc1cc(C2(c3cc(C)c(O)c(Br)c3)OS(=O)(=O)c3ccccc32)cc(Br)c1O
melting point: 242 °C

CC1C2Cc3ccc(O)cc3C1(C)CCN2CCc1ccccc1 (stereo unspecified)
melting point: 181 °C

OCC(O)CCl (stereo unspecified)
log10 vapour pressure (mmHg): -0.699
ready biodegradability: readily biodegradable

BrC1Cc2ccccc2C1Br (stereo unspecified)
melting point: 32 °C

CC1CCCC(C)C1C (stereo unspecified)
boiling point: 142 °C

c1ccnnc1
boiling point: 208 °C
melting point: -8 °C

Cc1cccc(OC(N)=O)c1
log10 Koc (L/kg): 1.48

C1CCCCCC1
boiling point: 118 °C
log10 vapour pressure (mmHg): 1.33
melting point: -8 °C

c1cc2ccc3ccc4ccc5cccc6c(c1)c2c3c4c56
log10 Henry constant (atm·m³/mol): -6.48
log10 Koc (L/kg): 4.61
log10 biodegradation half-life (days): 2.75
log10 vapour pressure (mmHg): -10
melting point: 278 °C

CCOC(=O)CCCOc1ccc(Cl)cc1C
log10 vapour pressure (mmHg): -5.84
melting point: -1 °C

NC(=O)C1c2ccccc2CCc2ccccc21
melting point: 194 °C

BrCI
boiling point: 140 °C

Cc1cc(N)nc(C)n1
melting point: 183 °C

NC(=O)Nc1ccccc1
boiling point: 238 °C
log10 Koc (L/kg): 1.35
melting point: 147 °C
ready biodegradability: not readily biodegradable

O=C1C(Cl)=C(Cl)C(=O)N1c1ccc(F)cc1
melting point: 241 °C

Cc1ccc(C(F)(F)F)cc1
boiling point: 129 °C

O=C1CC(c2ccccc2)Oc2ccccc21 (stereo unspecified)
melting point: 77 °C

CC(C)Br
boiling point: 59.5 °C
log10 vapour pressure (mmHg): 2.34
melting point: -89 °C
ready biodegradability: readily biodegradable

Cc1ccc(OP(=O)(Oc2ccc(C)c(C)c2)Oc2ccc(C)c(C)c2)cc1C
melting point: 72 °C

CCOc1ccc(C(=O)OCCN(CC)CC)cc1
melting point: 173 °C

C=C(Br)CC1(C(C)C)C(=O)NC(=O)NC1=O
melting point: 181 °C

CCC(O)CN (stereo unspecified)
boiling point: 169 °C
melting point: 3 °C

CCOC(=O)Cc1ccccc1
boiling point: 227 °C
log10 Koc (L/kg): 1.89
melting point: -29.4 °C

CC(=C(CCO)SSC(CCO)=C(C)N(C=O)Cc1cnc(C)nc1N)N(C=O)Cc1cnc(C)nc1N
melting point: 177 °C

CCC(C)C(C)C(C)C (stereo unspecified)
boiling point: 139 °C
log10 vapour pressure (mmHg): 0.955

BrCCCCCCCCCCBr
ready biodegradability: not readily biodegradable

O=C(Cl)C(Cl)Cl
boiling point: 108 °C
log10 vapour pressure (mmHg): 1.36

NCCCCCCO
log10 vapour pressure (mmHg): -2.62
melting point: 57 °C

C#CCOS(=O)OC1CCCCC1Oc1ccc(C(C)(C)C)cc1 (stereo unspecified)
log10 Koc (L/kg): 3.6
log10 vapour pressure (mmHg): -6.52

c1ccc(N2CCCCC2)cc1
boiling point: 258 °C
melting point: 4.7 °C

CCCCCCCCCCCCCCCC(=O)CC
melting point: 51 °C

O=C1OC(=O)C2CC=CCC12 (stereo unspecified)
ready biodegradability: not readily biodegradable

Cc1ccc(Cl)c(O)c1Cl
boiling point: 237 °C
melting point: 28 °C

CCCCCCCCCCCCCCCCCC(=O)OCCC
melting point: 28.9 °C

FC(F)(Br)C(F)(F)C(F)(F)C(F)(F)C(F)(F)C(F)(F)C(F)(F)C(F)(F)Br
boiling point: 180 °C

Nc1ccc(Br)cc1
log10 Koc (L/kg): 1.96
melting point: 66.4 °C

CC(CCO)CC(C)(C)C (stereo unspecified)
boiling point: 194 °C
log10 vapour pressure (mmHg): -0.523
ready biodegradability: not readily biodegradable

CCCC(C)(C)C
boiling point: 79.2 °C
log10 biodegradation half-life (days): 0.845
log10 vapour pressure (mmHg): 2.02
melting point: -124 °C

CCCCCCCCCCCF
log10 vapour pressure (mmHg): -0.682

CC(C)OC(=O)C1(S(=O)(=O)c2ccc([N+](=O)[O-])cc2)CCC1
melting point: 65.5 °C

COc1ccccc1N1CCNCC1
melting point: 38.5 °C

N=C(Nc1ccccc1)Nc1ccccc1
melting point: 150 °C
ready biodegradability: not readily biodegradable
log10 BCF: 1.3

O=C(O)/C=C/c1ccccc1
boiling point: 300 °C
log10 vapour pressure (mmHg): -4.49
melting point: 133 °C

OCCCCCCO
boiling point: 250 °C
log10 vapour pressure (mmHg): -3.3
melting point: 45 °C

CCC(C)(NC(=O)c1cc(Cl)c(C)c(Cl)c1)C(=O)CCl (stereo unspecified)
log10 biotransformation half-life (days): 0.16

C=CCc1ccc(OC=O)c(OC)c1
boiling point: 270 °C

Clc1cc(Cl)cc(-c2ccc(Cl)c(Cl)c2)c1
log10 Henry constant (atm·m³/mol): -4.05

CSCCl
boiling point: 105 °C

CC(=O)N1CCCCC1
boiling point: 226 °C
melting point: -13.4 °C

c1ccc(-n2ccnc2)cc1
boiling point: 276 °C
melting point: 13 °C

CCOCC(=O)OCC
boiling point: 158 °C

O=C(O)CCCCCCBr
boiling point: 280 °C
melting point: 31 °C
ready biodegradability: readily biodegradable

Cc1ccc2c(c1)CC(C)CC2 (stereo unspecified)
boiling point: 237 °C

CC(N)CN (stereo unspecified)
boiling point: 120 °C
log10 vapour pressure (mmHg): 1.03

O=C(CC(c1ccccc1)c1ccccc1)c1ccccc1
melting point: 96 °C

COC(=O)C1(S(=O)(=O)c2ccc(Br)cc2)CC1
melting point: 124 °C

CC(C)C(=O)C(=O)C(C)C
boiling point: 144 °C

O=NN(CCCl)C(=O)NCCCl
melting point: 31 °C

CCOP(=S)(OCC)Oc1nc(Cl)n(C(C)C)n1
log10 Koc (L/kg): 2.01
log10 vapour pressure (mmHg): -4.06

C=C(C)C(=O)OCc1ccccc1
ready biodegradability: readily biodegradable

CCC(=O)O[C@H]([C@H](C)[C@H]1O[C@@]2(CC[C@@](C)([C@H]3CC[C@@](C)(C4O[C@@H]([C@H]5O[C@@](O)(CO)[C@H](C)C[C@@H]5C)C[C@@H]4C)O3)O2)C[C@H](O)[C@H]1C)[C@@H](C)C(=O)O (stereo partly specified)
melting point: 152 °C

COc1ccc(CO)cc1O
melting point: 136 °C

OCc1ccccc1
boiling point: 205 °C
log10 Henry constant (atm·m³/mol): -6.47
log10 Koc (L/kg): 1.1
log10 vapour pressure (mmHg): -1.03
melting point: -15.2 °C
ready biodegradability: readily biodegradable

O=C(O)Cn1c(=O)sc2cccc(Cl)c21
log10 Koc (L/kg): 1.52
log10 vapour pressure (mmHg): -9.12
melting point: 193 °C

CCNc1nc(O)nc(NCC)n1
ready biodegradability: not readily biodegradable

C[C@H](CCC(=O)O)[C@H]1CC[C@H]2[C@@H]3CCC4CCCC[C@]4(C)[C@H]3CC[C@]12C (stereo partly specified)
melting point: 164 °C

COc1ccc([C@@H]2CC(=O)c3c(O)cc(O)cc3O2)cc1O
melting point: 228 °C

O=C1CC[C@@H](C(=O)O)N1
melting point: 185 °C

CSc1ccccc1
boiling point: 193 °C
log10 vapour pressure (mmHg): -0.314

CC1(C)C2CCC1(C)C(O)C2 (stereo unspecified)
ready biodegradability: readily biodegradable

CC(C)CCOC(=O)CC(C)C
boiling point: 190 °C
log10 vapour pressure (mmHg): -0.0526

COC(=O)C=C(C)C
boiling point: 136 °C
